Measured values: US4710572A, “Histamine H1 antagonists” (American Home Products Corporation, priority 1986, dated 1987)
Read-outs that look alike come from different tables or passages of the source.

Legend:
[1] = biological target: T1, histamine H1 (Cavia porcellus, UniProt P31389); experiment: Drugs vs. histamine at 1 × 10^-6 M in guinea pig terminal ileum, comparison with -383 analogues; format: cell-based; set-up: A section of terminal ileum was removed and suspended in aerated 37° C; Tyrodes solution; from tissue; host or cells: terminal ileum of male Hartley guinea pigs
Excerpt: Tyrodes solution. […] Tissues were washed several times before repeating the procedure for the next concentration. A different set of 4 tissues was used for each drug.

[2] = biological target: T1, histamine H1; experiment: cell-based
Protocol: Subsequently, additional characterization of the compound herein exemplified was carried out in which complete histamine dose response curves were constructed first in the absence of test drug and then repeated in the presence of test drug at a specified concentration. A single experiment of this type allowed calculation of a pKB value from the rightward shift induced by the drug in the histaminic dose response curve, while three such experiments (at three different drug concentrations) allowed calculation of a pA2 value.

[3] = system: histamine-induced deaths in guinea pigs; experiment: Inhibition of histamine-induced deaths in guinea pigs; format: in vivo, guinea pig
Protocol: The compound exemplified herein, after a one hour pretreatment period, inhibited histamine-induced deaths in guinea pigs over the range of 1-5 mg/kg, with 100 percent effectiveness at the latter dose. At 18 hours post drug treatment the test compound retained 40 percent effectiveness at 10 mg/kg.

[4] = system: histamine-induced wheal formation in guinea pig skin; experiment: Histamine-induced wheal formation in guinea pig skin; format: in vivo
[5] = system: histamine-induced changes in bronchopulmonary parameters; experiment: Reversal of histamine-induced changes in bronchopulmonary parameters in the anesthetized guinea pig; format: in vivo
[6] = system: histamine-induced paw edema formation; experiment: Histamine-induced paw edema formation; conditions: in vivo
[7] = system: limbic D2 dopamine receptor; experiment: Limbic D2 dopamine receptor binding (Fields et al.); conditions: at 1 μM
[8] = Conditioned avoidance (shelf-jump), Herman et al.; format: in vivo; conditions: 40 mg/kg
[9] = Confinement motor activity, Tedeschi et al.; format: in vivo; conditions: 5 and 10 mg/kg i.p.
[10] = Modified Geller-Seifter experimentally-induced conflict test; conditions: in vivo
[11] = biological target: T1, histamine H1; experiment: Histamine-induced contraction of isolated guinea pig ileum, single drug concentration; format: cell-based; set-up: A section of terminal ileum was removed and suspended in aerated 37° C; Tyrodes solution; from tissue; host or cells: terminal ileum of male Hartley guinea pigs; conditions: histamine 1×10^-7 M; test drug 1×10^-6 M
Protocol: Fresh segments of terminal ileum immediately proximal to Peyer's patch, obtained from male Buckshire guinea pigs, were suspended in 37° C. Tyrode's solution in a tissue bath and aerated. The tissue segments were placed under one gram tension and allowed to equilibrate for one hour. Histamine was added to each tissue bath to a final concentration of 1×10^-7 M. The response was noted as grams tension. Test drug was added, in the presence of histamine, to each bath to a final concentration of 1×10^-6 M. The change in grams tension was noted and the percent reduction in grams tension calculated.

[12] = guinea pig ileum, histamine 1 × 10^-6 M, calculated from the table data, read-out: IC50 (inhibitory concentration50)

T1 sequence (P31389 whole entry): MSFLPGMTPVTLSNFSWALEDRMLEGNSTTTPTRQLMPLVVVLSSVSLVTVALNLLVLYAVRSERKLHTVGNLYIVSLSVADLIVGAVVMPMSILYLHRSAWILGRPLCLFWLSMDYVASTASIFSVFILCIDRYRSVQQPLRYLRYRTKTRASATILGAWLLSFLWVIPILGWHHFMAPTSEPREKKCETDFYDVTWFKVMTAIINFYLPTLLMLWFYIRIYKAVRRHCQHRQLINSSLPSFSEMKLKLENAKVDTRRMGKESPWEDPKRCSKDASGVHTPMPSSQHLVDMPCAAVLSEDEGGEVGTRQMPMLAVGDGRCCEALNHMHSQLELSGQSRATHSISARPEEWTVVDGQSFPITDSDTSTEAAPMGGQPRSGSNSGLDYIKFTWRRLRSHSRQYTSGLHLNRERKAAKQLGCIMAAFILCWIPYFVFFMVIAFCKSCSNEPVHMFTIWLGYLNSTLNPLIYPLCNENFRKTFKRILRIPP

Row | IC50 [1, 12] [nM] | SMILES | Kb [2] [nM] | type of antagonism (shift of histamine dose response curve) ([2]; isolated guinea pig ileum) | potency relative to terfenadine ([2]; vs terfenadine) | effectiveness in inhibition of histamine-induced deaths ([3]; 5 mg/kg, one hour pretreatment) [%] | effectiveness in inhibition of histamine-induced deaths ([3]; 10 mg/kg, 18 hours post drug treatment) [%] | effectiveness against wheal formation ([4]; 1.7 mg/kg, 18 hour pretreatment) | suppression of wheal formation ([4]; highest dose (2.1 mg/kg), one hour pretreatment) | reversal of histamine-induced changes in bronchopulmonary parameters [5] | inhibition of histamine-induced paw edema formation [6] | inhibition of limbic D2 dopamine receptor binding [7] [%] | conditioned avoidance (shelf-jump) activity [8] | sedative effect in confinement motor activity [9] | effect in modified Geller-Seifter conflict test [10] | antagonist action against the histamine-induced contractile response in the isolated guinea pig ileum [11] | IC50 [1] [nM] | potency relative to the -383 dichloro compound ([1]; ratio of IC50's) | potency relative to the -383 monochloro compound ([1]; ratio of IC50's) [times]
1 | 790 | Cn1c(=O)c2c(ncn2CCCCN2CCN(C(c3ccc(Cl)cc3)c3ccc(Cl)cc3)CC2)n(C)c1=O [-383 Dichloro compound, 7-[4-[4-(4',4"-dichlorodiphenylmethyl)piperazinyl-(1)]-n-butyl]theophylline, reference compound] | – | – | – | – | – | – | – | – | – | – | – | – | – | – | – | – | –
2 | – | Cn1c(=O)c2c(ncn2CCCN2CCN(C(c3ccc(F)cc3)c3ccc(F)cc3)CC2)n(C)c1=O [Difluoro compound, 7-[3-[4-bis(4-fluorophenyl)methyl]-1-piperazinyl]propyl-3,7-dihydro-1,3-dimethyl-1H-purine-2,6-dione] | 6.31 | parallel rightward shifts with no decrease in the maximum response | about five times as potent as terfenadine | 100 | 40 | retained maximal effectiveness | Maximum suppression of wheal formation | reversal of histamine-induced changes in bronchopulmonary parameters | inhibition of histamine-induced paw edema formation | 43 | inactive | no sedative effect | mild stimulation | potent, competitive antagonist action | 38 | about 21 times | 10
3 | 370 | Cn1c(=O)c2c(ncn2CCCN2CCN(C(c3ccccc3)c3ccc(Cl)cc3)CC2)n(C)c1=O (stereo not shown) [-383 Monochloro compound, 7-[3-[4-p-chlorobenzhydrylpiperazinyl-(1)]-n-propyl]-theophylline, reference compound] | – | – | – | – | – | – | – | – | – | – | – | – | – | – | – | – | –
